Data set [1] can be described thus: Clearance in dog hepatocytes. The class given is ADME, cell-based, Canis lupus familiaris, Hepatocyte.
Data set [2] can be described thus: Terminal half life in Sprague-Dawley rat at 2 mg/kg, po or 0.5 mg/kg, iv by LC/MS/MS analysis. It counts as ADME, organism-based. As to conditions: in vivo, read-out: beta t1/2 (converted); call rule not given here.
For data set [3], the target named is Serine/threonine-protein kinase 10 (Homo sapiens) (UniProt O94804). Put plainly: Inhibition of human STK10 at 1 uM using RLGRDKYKTLRQIRQ as substrate in presence of [gamma-33P]ATP relative to control.
Data set [4] in a line: Cmax in Gottingen minipig at 1 mg/kg, po by LC/MS/MS analysis. It counts as ADME, organism-based, Sus scrofa. The arrangement: dose 1 mg/kg, route oral. As to conditions: pig, in vivo.
Data set [5] is described as follows: Clearance in minipig hepatocytes. It counts as ADME, cell-based, Sus scrofa, Hepatocyte. As to conditions: pig.
Data set [6] concerns the target T1, Interleukin-1 receptor type 1 (Homo sapiens, UniProt P14778).
T1 sequence (P14778 whole entry): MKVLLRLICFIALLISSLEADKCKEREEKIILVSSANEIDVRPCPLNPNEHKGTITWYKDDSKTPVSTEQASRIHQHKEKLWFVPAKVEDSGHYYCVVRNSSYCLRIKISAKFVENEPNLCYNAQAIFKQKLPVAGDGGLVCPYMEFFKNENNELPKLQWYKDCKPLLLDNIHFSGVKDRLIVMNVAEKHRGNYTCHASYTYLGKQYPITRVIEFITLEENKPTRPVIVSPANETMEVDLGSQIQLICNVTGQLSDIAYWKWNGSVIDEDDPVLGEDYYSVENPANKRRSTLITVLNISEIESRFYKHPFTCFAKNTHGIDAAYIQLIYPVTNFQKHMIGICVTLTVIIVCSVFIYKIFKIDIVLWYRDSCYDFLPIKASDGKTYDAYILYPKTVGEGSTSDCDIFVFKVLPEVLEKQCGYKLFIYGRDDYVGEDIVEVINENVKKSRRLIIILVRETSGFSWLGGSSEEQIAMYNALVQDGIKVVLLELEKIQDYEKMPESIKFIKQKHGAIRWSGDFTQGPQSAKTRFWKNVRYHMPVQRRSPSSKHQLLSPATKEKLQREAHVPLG
The data set can be described thus: Inhibition of IL1R in human monocytes assessed as reduction in IL1beta-induced TNFalpha production. It counts as cell-based.

Data set [7] in a line: Oral bioavailability in Beagle dog at 2 mg/kg by LC/MS/MS analysis. As to conditions: in vivo. It counts as ADME, organism-based, Canis lupus familiaris.
For data set [8], the system named is Intestinal mucosa. Put plainly: Antiinflammatory activity in ulcerative colitis patient derived inflamed intestinal mucosa assessed as reduction in IL6 production measured after overnight incubation by immunoassay. As to conditions: Homo sapiens. The class given is functional, tissue-based.
Data set [9] can be described thus: Dose normalized AUC in Sprague-Dawley rat at 60 mg/kg, po using crystalline sample during 7 day dose ranging study by LC/MS/MS analysis. The class given is ADME, organism-based. As to conditions: in vivo, 168 h.
For data set [10], the target named is Toll-like receptor 2 (Homo sapiens, UniProt O60603). The data set can be described thus: Inhibition of TLR2 in HEK293 cells assessed as reduction in Pam2CSK4-induced IL8 production. It counts as cell-based.
Data set [11] can be described thus: Terminal half life in Gottingen minipig at 1 mg/kg, po or 0.4 mg/kg, iv by LC/MS/MS analysis. The class given is ADME, organism-based, Sus scrofa. As to conditions: pig, in vivo, read-out: beta t1/2 (converted).
The nature of data set [12]: Clearance in Beagle dog at 2 mg/kg, po or 1.1 mg/kg, iv by LC/MS/MS analysis. As to conditions: in vivo. The class given is ADME, organism-based, Canis lupus familiaris.
Data set [13] concerns the target Nucleotide-binding oligomerization domain-containing protein 2 (Homo sapiens, UniProt Q9HC29). The data set can be described thus: Inhibition of human NOD2 expressed in HEK293 cells assessed as reduction in MDP-induced IL8 production measured after 22 hrs by HTRF fluorescence assay. The class given is cell-based.
A short description of data set [14]: Prodrug conversion in minipig hepatocytes assessed as hydrogenation at 20 uM measured after 4 hrs. The class given is ADME, cell-based, Sus scrofa, Hepatocyte. As to conditions: pig.
A short description of data set [15]: Prodrug conversion in minipig hepatocytes assessed as (2S,3S,4S,5R,6R)-6-(2-(4-(benzo[d]thiazol-5-ylamino)-6-(tert-butylsulfonyl)quinazolin-7-yloxy)ethoxy)-3,4,5-trihydroxytetrahydro-2H-pyran-2-carboxylic acid formation at 20 uM measured after 4 hrs. It counts as ADME, cell-based, Sus scrofa, Hepatocyte. As to conditions: pig.
A short description of data set [16]: Prodrug conversion in human hepatocytes assessed as 2-(4-(benzo[d]thiazol-5-ylamino)-6-(tert-butylsulfonyl)-1,2,3,4-tetrahydroquinazolin-7-yloxy)ethanol formation at 20 uM measured after 4 hrs. It counts as ADME, cell-based, Hepatocyte.
Data set [17] is described as follows: Prodrug conversion in rat hepatocytes assessed as 2-(4-(benzo[d]thiazol-5-ylamino)-6-(tert-butylsulfonyl)quinazolin-7-yloxy)acetic acid formation at 20 uM measured after 4 hrs. The class given is ADME, cell-based, Hepatocyte.
Data set [18] can be described thus: Prodrug conversion in Han Wistar rat skin assessed as 2-((4-(Benzo[d]thiazol-5-ylamino)-6-(tert-butylsulfonyl)quinazolin-7-yl)oxy)ethanol formation at 2 mg/kg, iv administered as infusion for 4 hrs. As to conditions: in vivo. It counts as ADME, organism-based, Zone of skin.
Data set [19] in a line: Prodrug conversion in minipig hepatocytes assessed as oxidation at 20 uM measured after 4 hrs. It counts as ADME, cell-based, Sus scrofa, Hepatocyte. As to conditions: pig.
Data set [20] can be described thus: Prodrug conversion in human hepatocytes assessed as (2S,3S,4S,5R,6R)-6-(2-(4-(benzo[d]thiazol-5-ylamino)-6-(tert-butylsulfonyl)quinazolin-7-yloxy)ethoxy)-3,4,5-trihydroxytetrahydro-2H-pyran-2-carboxylic acid formation at 20 uM measured after 4 hrs. The class given is ADME, cell-based, Hepatocyte.
Data set [21] is described as follows: Prodrug conversion in Han Wistar rat colon assessed as 2-((4-(Benzo[d]thiazol-5-ylamino)-6-(tert-butylsulfonyl)quinazolin-7-yl)oxy)ethanol formation at 2 mg/kg, iv administered as infusion for 4 hrs. The class given is ADME, organism-based. As to conditions: in vivo.
Data set [22] is described as follows: Prodrug conversion in rat hepatocytes assessed as 2-(4-(benzo[d]thiazol-5-ylamino)-6-(tert-butylsulfonyl)-1,2,3,4-tetrahydroquinazolin-7-yloxy)ethanol formation at 20 uM measured after 4 hrs. The class given is ADME, cell-based, Hepatocyte.
A short description of data set [23]: AUC in Gottingen minipig assessed as 2-((4-(Benzo[d]thiazol-5-ylamino)-6-(tert-butylsulfonyl)quinazolin-7-yl)oxy)ethanol level at 1 mg/kg, po by LC/MS/MS analysis. The class given is ADME, organism-based, Sus scrofa. As to conditions: pig, in vivo.
Data set [24] in a line: Cmax in Gottingen minipig assessed as 2-((4-(Benzo[d]thiazol-5-ylamino)-6-(tert-butylsulfonyl)quinazolin-7-yl)oxy)ethanol level at 1 mg/kg, po by LC/MS/MS analysis. It counts as ADME, organism-based, Sus scrofa. Also noted: dose 1 mg/kg, route oral. As to conditions: pig, in vivo.
The nature of data set [25]: Drug uptake in Han Wistar rat eye at 2 mg/kg, iv administered as infusion for 4 hrs. It counts as ADME, organism-based. As to conditions: in vivo.
A short description of data set [26]: Cmax in Beagle dog assessed as 2-((4-(Benzo[d]thiazol-5-ylamino)-6-(tert-butylsulfonyl)quinazolin-7-yl)oxy)ethanol level at 2 mg/kg, po by LC/MS/MS analysis. It counts as ADME, organism-based, Canis lupus familiaris. Also noted: dose 2 mg/kg, route oral. As to conditions: in vivo.
A short description of data set [27]: Toxicity in Sprague-Dawley rat during 6 week study. As to conditions: in vivo, 1008 h.
Data set [28] in a line: Prodrug conversion in Han Wistar rat eye assessed as 2-((4-(Benzo[d]thiazol-5-ylamino)-6-(tert-butylsulfonyl)quinazolin-7-yl)oxy)ethanol formation at 2 mg/kg, iv administered as infusion for 4 hrs. As to conditions: in vivo. It counts as ADME, organism-based.
A short description of data set [29]: Volume of distribution at steady state in Gottingen minipig assessed as 2-((4-(Benzo[d]thiazol-5-ylamino)-6-(tert-butylsulfonyl)quinazolin-7-yl)oxy)ethanol level at 2 mg/kg, po or 1 mg/kg, iv by LC/MS/MS analysis. The class given is ADME, organism-based, Sus scrofa. As to conditions: pig, in vivo.
Data set [30] addresses Cytochrome P450 3A4 (Homo sapiens, UniProt P08684). Put plainly: Inhibition of CYP3A4 (unknown origin). It counts as ADME.
A short description of data set [31]: Prodrug conversion in rat hepatocytes assessed as dephosphorylation at 20 uM measured after 4 hrs. It counts as ADME, cell-based, Hepatocyte.

The values below come from ChEMBL document CHEMBL4364295, “Discovery of a First-in-Class Receptor Interacting Protein 2 (RIP2) Kinase Specific Clinical Candidate, 2-((4-(Benzo[d]thiazol-5-ylamino)-6-(tert-butylsulfonyl)quinazolin-7-yl)oxy)ethyl Dihydrogen Phosphate, for the Treatment of Inflammatory Diseases” (J Med Chem, 2019).

Molecules are shown by their SMILES. A value given as a limit tells only on which side of the number the result lay.

Nucleotide-binding oligomerization domain-containing protein 2, sequence (Q9HC29 whole entry, the tested form may be a part): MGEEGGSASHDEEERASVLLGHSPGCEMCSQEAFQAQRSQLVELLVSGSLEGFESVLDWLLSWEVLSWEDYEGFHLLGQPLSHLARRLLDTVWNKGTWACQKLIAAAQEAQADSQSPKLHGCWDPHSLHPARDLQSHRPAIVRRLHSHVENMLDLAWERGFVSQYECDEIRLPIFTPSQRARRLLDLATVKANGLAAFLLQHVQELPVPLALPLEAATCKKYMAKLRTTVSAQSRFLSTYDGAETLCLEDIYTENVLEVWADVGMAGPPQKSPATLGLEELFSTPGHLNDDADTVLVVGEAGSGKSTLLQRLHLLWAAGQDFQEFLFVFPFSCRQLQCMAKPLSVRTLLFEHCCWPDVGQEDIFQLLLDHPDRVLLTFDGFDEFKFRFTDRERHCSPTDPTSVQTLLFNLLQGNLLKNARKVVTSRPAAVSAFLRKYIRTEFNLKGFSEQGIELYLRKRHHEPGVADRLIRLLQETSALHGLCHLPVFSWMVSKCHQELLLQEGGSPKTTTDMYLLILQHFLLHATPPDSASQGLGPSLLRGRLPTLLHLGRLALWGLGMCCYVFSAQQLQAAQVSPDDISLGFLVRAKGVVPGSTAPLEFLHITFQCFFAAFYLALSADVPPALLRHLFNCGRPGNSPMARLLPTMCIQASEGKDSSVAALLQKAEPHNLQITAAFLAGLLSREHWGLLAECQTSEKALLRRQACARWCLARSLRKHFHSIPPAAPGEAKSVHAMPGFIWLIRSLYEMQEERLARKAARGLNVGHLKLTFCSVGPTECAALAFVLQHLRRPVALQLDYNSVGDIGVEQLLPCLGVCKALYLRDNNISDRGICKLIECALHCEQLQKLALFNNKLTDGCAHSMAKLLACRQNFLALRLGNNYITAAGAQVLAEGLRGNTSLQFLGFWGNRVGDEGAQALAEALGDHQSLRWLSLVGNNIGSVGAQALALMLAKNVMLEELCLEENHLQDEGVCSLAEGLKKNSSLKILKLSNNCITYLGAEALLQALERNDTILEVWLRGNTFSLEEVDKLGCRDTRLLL
Cytochrome P450 3A4, sequence (P08684 whole entry): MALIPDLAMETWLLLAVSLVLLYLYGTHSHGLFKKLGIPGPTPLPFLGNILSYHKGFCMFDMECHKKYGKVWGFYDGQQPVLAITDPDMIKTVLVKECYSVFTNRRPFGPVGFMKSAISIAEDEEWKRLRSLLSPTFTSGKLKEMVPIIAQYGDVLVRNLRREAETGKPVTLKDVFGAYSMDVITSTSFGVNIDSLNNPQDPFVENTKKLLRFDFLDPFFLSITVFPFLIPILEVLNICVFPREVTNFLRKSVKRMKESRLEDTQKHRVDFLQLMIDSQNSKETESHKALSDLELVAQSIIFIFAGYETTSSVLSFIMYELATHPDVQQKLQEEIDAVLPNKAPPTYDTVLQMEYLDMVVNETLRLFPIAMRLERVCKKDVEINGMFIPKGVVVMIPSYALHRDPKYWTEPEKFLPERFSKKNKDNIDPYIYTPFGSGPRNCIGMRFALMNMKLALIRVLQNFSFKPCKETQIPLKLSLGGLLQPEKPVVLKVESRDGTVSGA
Serine/threonine-protein kinase 10 (Homo sapiens), sequence (O94804 whole entry, looked up): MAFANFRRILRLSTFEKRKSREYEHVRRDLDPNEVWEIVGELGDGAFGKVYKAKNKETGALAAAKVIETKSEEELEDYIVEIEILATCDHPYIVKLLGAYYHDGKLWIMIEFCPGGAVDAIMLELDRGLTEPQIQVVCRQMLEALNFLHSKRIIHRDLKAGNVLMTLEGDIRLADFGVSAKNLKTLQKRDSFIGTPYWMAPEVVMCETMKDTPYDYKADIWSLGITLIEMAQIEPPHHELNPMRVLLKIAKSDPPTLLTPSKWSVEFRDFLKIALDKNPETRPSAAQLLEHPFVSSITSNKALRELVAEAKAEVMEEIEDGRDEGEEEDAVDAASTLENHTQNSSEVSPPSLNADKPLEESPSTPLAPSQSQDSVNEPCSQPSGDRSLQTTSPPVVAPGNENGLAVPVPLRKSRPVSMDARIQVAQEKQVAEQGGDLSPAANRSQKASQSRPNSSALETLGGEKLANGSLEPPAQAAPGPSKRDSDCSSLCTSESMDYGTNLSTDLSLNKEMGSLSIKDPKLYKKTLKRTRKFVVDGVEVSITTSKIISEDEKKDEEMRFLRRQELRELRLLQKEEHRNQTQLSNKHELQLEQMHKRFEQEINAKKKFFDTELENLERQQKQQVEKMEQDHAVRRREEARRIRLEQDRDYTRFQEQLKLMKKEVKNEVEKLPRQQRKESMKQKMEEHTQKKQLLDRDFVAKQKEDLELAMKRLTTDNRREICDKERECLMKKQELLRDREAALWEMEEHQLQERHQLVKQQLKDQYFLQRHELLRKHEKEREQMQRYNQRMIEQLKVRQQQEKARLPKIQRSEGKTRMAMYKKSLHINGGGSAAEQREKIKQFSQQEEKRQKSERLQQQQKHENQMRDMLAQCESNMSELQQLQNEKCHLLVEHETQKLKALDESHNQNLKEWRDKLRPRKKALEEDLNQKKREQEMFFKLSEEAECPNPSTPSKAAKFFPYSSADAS
Toll-like receptor 2, sequence (O60603 whole entry): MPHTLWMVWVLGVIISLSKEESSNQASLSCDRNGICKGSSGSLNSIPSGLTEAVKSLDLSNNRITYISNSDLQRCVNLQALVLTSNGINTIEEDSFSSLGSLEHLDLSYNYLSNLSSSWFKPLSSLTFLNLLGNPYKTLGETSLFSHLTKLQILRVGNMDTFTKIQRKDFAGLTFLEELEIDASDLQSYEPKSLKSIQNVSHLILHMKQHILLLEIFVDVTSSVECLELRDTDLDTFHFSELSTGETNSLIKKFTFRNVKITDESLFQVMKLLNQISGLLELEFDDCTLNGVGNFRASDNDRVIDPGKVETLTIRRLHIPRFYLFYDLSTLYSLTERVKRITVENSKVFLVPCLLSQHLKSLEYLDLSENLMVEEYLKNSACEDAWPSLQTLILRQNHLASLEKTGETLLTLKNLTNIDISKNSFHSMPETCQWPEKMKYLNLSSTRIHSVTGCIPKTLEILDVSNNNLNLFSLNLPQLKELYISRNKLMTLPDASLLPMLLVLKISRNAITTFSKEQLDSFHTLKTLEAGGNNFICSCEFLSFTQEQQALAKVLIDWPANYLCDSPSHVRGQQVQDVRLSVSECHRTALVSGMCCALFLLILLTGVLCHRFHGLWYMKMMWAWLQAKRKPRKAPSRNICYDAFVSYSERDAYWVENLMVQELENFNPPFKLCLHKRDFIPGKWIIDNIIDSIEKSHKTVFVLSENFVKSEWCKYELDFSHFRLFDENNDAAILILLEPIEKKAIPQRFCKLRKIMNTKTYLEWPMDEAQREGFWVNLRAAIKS

On to `CC(C)(C)S(=O)(=O)c1cc2c(Nc3ccc4scnc4c3)ncnc2cc1OCCO`, for which the CLH in data set [1] was 0.65 mL/min/g; in data set [5] it was 0.55 mL/min/g. The half-life in data set [2] is 264 min; in data set [11], 114 min. Also, the values for the inhibition in data set [3] and in data set [13] were 70 to 90% and “Dose-dependent effect”, respectively. In data set [4], this molecule had a Cmax of 31 ng/mL. Moreover, the IC50 is > 10 µM in data set [6], 10 nM in data set [8], > 10 µM in [10] and 4 nM in data set [13]. In data set [7], the bioavailability was determined as 57%. Further, the Activity result in data set [8] was “Dose-dependent effect”. The molecule also had an AUC/dose in [9] of 0.39 kg·h/L. In data set [12], the clearance worked out at 9.9 mL/min/kg.
`CC(C)(C)S(=O)(=O)c1cc2c(Nc3ccc4scnc4c3)ncnc2cc1OCCOP(=O)(O)O.[CaH2]`: the Drug metabolism result in [14], in [15], in data set [16], in data set [17], in [18] and in data set [19] was “Metabolite_Detected” throughout. Also, the Drug metabolism result in data set [20], in [21], in data set [22], in data set [28] and in data set [31] was “Metabolite_Detected” in each case. For the same molecule, the AUC in data set [23] came out at 1100 ng·h/mL. In addition, the Cmax is 340 ng/mL in data set [24] and 840 ng/mL in [26]. The Drug uptake result in data set [25] is “Not Active”. The Activity entry in [27] is reported as “Non-Toxic”. Moreover, the Vdss in data set [29] was 2.1 L/kg. The IC50 in [30] was > 30 µM.
